#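 48-hour exposure; five concentrations; linearly interpolated endpoints. GI50 marks 50% less growth.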 Active and inactive are the calls of the source. Cut-off read from the data, not from the text of the source: active = GI50 up to about 1.1 µM and inactive = higher.
# Columns and labels:
# Experiment in all cases: NCI tumour cell line growth inhibition, 48 h
# KM12 = system: KM12
# SK-MEL-2 = system: SK-MEL-2
# SK-MEL-28 = system: SK-MEL-28
# TK-10 = system: TK-10
# SNB-75 = system: SNB-75
# UO-31 = system: UO-31
# MOLT-4 = system: MOLT-4
# SR = system: SR
# IGROV-1 = system: IGROV-1
# CCRF-CEM = system: CCRF-CEM
# RXF 393 = system: RXF 393
# SK-OV-3 = system: SK-OV-3
# BT-549 = system: BT-549
# Malme-3M = system: Malme-3M
# NCI-H226 = system: NCI-H226
# MDA-N = system: MDA-N
# UACC-257 = system: UACC-257
# HCC 2998 = system: HCC 2998
# COLO 205 = system: COLO 205
# OVCAR-8 = system: OVCAR-8
# NCI-H460 = system: NCI-H460
# SK-MEL-5 = system: SK-MEL-5
# PC-3 = system: PC-3
# U-251 = system: U-251
# SN12C = system: SN12C
# OVCAR-5 = system: OVCAR-5
# DU-145 = system: DU-145
# LOX IMVI = system: LOX IMVI
# MDA-MB-231 = system: MDA-MB-231
# UACC-62 = system: UACC-62
# MCF7 = system: MCF7
# NCI-H522 = system: NCI-H522
# HCT-116 = system: HCT-116
# MDA-MB-435 = system: MDA-MB-435
# M14 = system: M14
# OVCAR-4 = system: OVCAR-4
# EKVX = system: EKVX
# HL-60 = system: HL-60
# NCI/ADR-RES = system: NCI/ADR-RES
# ACHN = system: ACHN
# NCI-H23 = system: NCI-H23
# CAKI-1 = system: CAKI-1
# HT-29 = system: HT-29
# K562 = system: K562
# A498 = system: A498
# SF-268 = system: SF-268
# HOP-62 = system: HOP-62
# SF-295 = system: SF-295
# 786-0 = system: 786-0
# SNB-19 = system: SNB-19
# RPMI-8226 = system: RPMI-8226
# HCT-15 = system: HCT-15
# SW-620 = system: SW-620
# A549 = system: A549
# T47D = system: T47D
# HOP-92 = system: HOP-92
# Hs-578T = system: Hs-578T
# SF-539 = system: SF-539
# OVCAR-3 = system: OVCAR-3
smiles,measurement,setting,value
CNc1ccc([N+](=O)[O-])cc1C(=O)N1CCC[C@H]1CO,GI50,KM12,> 100 µM (inactive)
same,GI50,SK-MEL-2,> 100 µM (inactive)
same,GI50,SK-MEL-28,> 100 µM (inactive)
same,GI50,TK-10,> 100 µM (inactive)
same,GI50,SNB-75,> 100 µM (inactive)
same,GI50,UO-31,> 100 µM (inactive)
same,GI50,MOLT-4,> 100 µM (inactive)
same,GI50,SR,> 100 µM (inactive)
same,GI50,IGROV-1,> 100 µM (inactive)
same,GI50,CCRF-CEM,> 100 µM (inactive)
same,GI50,RXF 393,> 100 µM (inactive)
same,GI50,SK-OV-3,> 100 µM (inactive)
same,GI50,BT-549,> 100 µM (inactive)
same,GI50,Malme-3M,> 100 µM (inactive)
same,GI50,NCI-H226,19.5 µM (inactive)
same,GI50,MDA-N,> 100 µM (inactive)
same,GI50,UACC-257,> 100 µM (inactive)
same,GI50,HCC 2998,> 100 µM (inactive)
same,GI50,COLO 205,> 100 µM (inactive)
same,GI50,OVCAR-8,> 100 µM (inactive)
same,GI50,NCI-H460,> 100 µM (inactive)
same,GI50,SK-MEL-5,> 100 µM (inactive)
same,GI50,PC-3,> 100 µM (inactive)
same,GI50,U-251,> 100 µM (inactive)
same,GI50,SN12C,> 100 µM (inactive)
same,GI50,OVCAR-5,> 100 µM (inactive)
same,GI50,DU-145,> 100 µM (inactive)
same,GI50,LOX IMVI,> 100 µM (inactive)
same,GI50,MDA-MB-231,> 100 µM (inactive)
same,GI50,UACC-62,> 100 µM (inactive)
same,GI50,MCF7,> 100 µM (inactive)
same,GI50,NCI-H522,> 100 µM (inactive)
same,GI50,HCT-116,> 100 µM (inactive)
same,GI50,MDA-MB-435,> 100 µM (inactive)
same,GI50,M14,> 100 µM (inactive)
same,GI50,OVCAR-4,> 100 µM (inactive)
same,GI50,EKVX,> 100 µM (inactive)
same,GI50,HL-60,> 100 µM (inactive)
same,GI50,NCI/ADR-RES,> 100 µM (inactive)
same,GI50,ACHN,> 100 µM (inactive)
same,GI50,NCI-H23,> 100 µM (inactive)
same,GI50,CAKI-1,> 100 µM (inactive)
same,GI50,HT-29,> 100 µM (inactive)
same,GI50,K562,> 100 µM (inactive)
same,GI50,A498,> 100 µM (inactive)
same,GI50,SF-268,> 100 µM (inactive)
same,GI50,HOP-62,> 100 µM (inactive)
same,GI50,SF-295,> 100 µM (inactive)
same,GI50,786-0,> 100 µM (inactive)
same,GI50,SNB-19,> 100 µM (inactive)
same,GI50,RPMI-8226,> 100 µM (inactive)
same,GI50,HCT-15,> 100 µM
same,GI50,SW-620,> 100 µM (inactive)
same,GI50,A549,> 100 µM (inactive)
same,GI50,T47D,> 100 µM (inactive)
same,GI50,HOP-92,> 100 µM (inactive)
same,GI50,Hs-578T,> 100 µM (inactive)
Cc1ccc(C2=CC(=O)/C(=C\C(=O)c3ccc(Cl)cc3)O2)cc1,GI50,KM12,22.8 µM (inactive)
same,GI50,SK-MEL-28,16.9 µM (inactive)
same,GI50,TK-10,3.23 µM (inactive)
same,GI50,SNB-75,35.8 µM (inactive)
same,GI50,UO-31,9.51 µM (inactive)
same,GI50,MOLT-4,3.94 µM (inactive)
same,GI50,SR,1.42 µM (inactive)
same,GI50,IGROV-1,16.2 µM (inactive)
same,GI50,CCRF-CEM,3.19 µM (inactive)
same,GI50,RXF 393,4.6 µM (inactive)
same,GI50,SK-OV-3,6.43 µM (inactive)
same,GI50,BT-549,1.86 µM (inactive)
same,GI50,Malme-3M,17.2 µM (inactive)
same,GI50,NCI-H226,17.2 µM (inactive)
same,GI50,MDA-N,3.2 µM (inactive)
same,GI50,UACC-257,0.1 µM (active)
same,GI50,HCC 2998,27.4 µM (inactive)
same,GI50,COLO 205,13.3 µM (inactive)
same,GI50,OVCAR-8,3.13 µM (inactive)
same,GI50,NCI-H460,> 10 µM (inactive)
same,GI50,SK-MEL-5,14.5 µM (inactive)
same,GI50,PC-3,2.43 µM (inactive)
same,GI50,U-251,17.7 µM (inactive)
same,GI50,OVCAR-5,21.1 µM (inactive)
same,GI50,DU-145,32.6 µM (inactive)
same,GI50,LOX IMVI,1.43 µM (inactive)
same,GI50,MDA-MB-231,12.1 µM (inactive)
same,GI50,UACC-62,11.6 µM (inactive)
same,GI50,MCF7,10.6 µM (inactive)
same,GI50,NCI-H522,1.97 µM (inactive)
same,GI50,HCT-116,14.3 µM (inactive)
same,GI50,MDA-MB-435,18 µM (inactive)
same,GI50,M14,18.3 µM (inactive)
same,GI50,OVCAR-4,15.9 µM (inactive)
same,GI50,EKVX,70 µM (inactive)
same,GI50,HL-60,0.902 µM (active)
same,GI50,NCI/ADR-RES,15.5 µM (inactive)
same,GI50,SF-539,21.2 µM (inactive)
same,GI50,ACHN,5.09 µM (inactive)
same,GI50,NCI-H23,24.2 µM (inactive)
same,GI50,CAKI-1,2.3 µM (inactive)
same,GI50,HT-29,4.14 µM (inactive)
same,GI50,K562,4.15 µM (inactive)
same,GI50,A498,27.2 µM (inactive)
same,GI50,SF-268,17.1 µM (inactive)
same,GI50,HOP-62,97.9 µM (inactive)
same,GI50,786-0,9.95 µM (inactive)
same,GI50,SNB-19,49.2 µM (inactive)
same,GI50,RPMI-8226,2.08 µM (inactive)
same,GI50,HCT-15,17.7 µM
same,GI50,OVCAR-3,4.7 µM (inactive)
same,GI50,SW-620,2.39 µM (inactive)
same,GI50,T47D,7.18 µM (inactive)
same,GI50,HOP-92,14.1 µM (inactive)
same,GI50,Hs-578T,23.9 µM (inactive)
O=C(O)CSCc1cccc2ccccc12,GI50,KM12,> 100 µM (inactive)
same,GI50,SK-MEL-2,> 100 µM (inactive)
same,GI50,SK-MEL-28,> 100 µM (inactive)
same,GI50,TK-10,48.8 µM (inactive)
same,GI50,SNB-75,> 100 µM (inactive)
same,GI50,UO-31,> 100 µM (inactive)
same,GI50,MOLT-4,> 100 µM (inactive)
same,GI50,SR,> 100 µM (inactive)
same,GI50,IGROV-1,> 100 µM (inactive)
same,GI50,CCRF-CEM,> 100 µM (inactive)
same,GI50,RXF 393,> 100 µM (inactive)
same,GI50,SK-OV-3,> 100 µM (inactive)
same,GI50,BT-549,> 100 µM (inactive)
same,GI50,Malme-3M,> 100 µM (inactive)
same,GI50,NCI-H226,> 100 µM (inactive)
same,GI50,MDA-N,> 100 µM (inactive)
same,GI50,UACC-257,62.1 µM (inactive)
same,GI50,COLO 205,> 100 µM (inactive)
same,GI50,OVCAR-8,> 100 µM (inactive)
same,GI50,NCI-H460,> 100 µM (inactive)
same,GI50,SK-MEL-5,> 100 µM (inactive)
same,GI50,PC-3,> 100 µM (inactive)
same,GI50,U-251,> 100 µM (inactive)
same,GI50,SN12C,> 100 µM (inactive)
same,GI50,OVCAR-5,> 100 µM (inactive)
same,GI50,DU-145,> 100 µM (inactive)
same,GI50,LOX IMVI,> 100 µM (inactive)
same,GI50,MDA-MB-231,> 100 µM (inactive)
same,GI50,UACC-62,> 100 µM (inactive)
same,GI50,MCF7,> 100 µM (inactive)
same,GI50,NCI-H522,> 100 µM (inactive)
same,GI50,HCT-116,> 100 µM (inactive)
same,GI50,MDA-MB-435,> 100 µM (inactive)
same,GI50,M14,> 100 µM (inactive)
same,GI50,OVCAR-4,> 100 µM (inactive)
same,GI50,EKVX,19.4 µM (inactive)
same,GI50,HL-60,> 100 µM (inactive)
same,GI50,NCI/ADR-RES,> 100 µM (inactive)
same,GI50,SF-539,> 100 µM (inactive)
same,GI50,ACHN,> 100 µM (inactive)
same,GI50,NCI-H23,> 100 µM (inactive)
same,GI50,CAKI-1,> 100 µM (inactive)
same,GI50,HT-29,> 100 µM (inactive)
same,GI50,K562,> 100 µM (inactive)
same,GI50,A498,> 100 µM (inactive)
same,GI50,SF-268,> 100 µM (inactive)
same,GI50,HOP-62,> 100 µM (inactive)
same,GI50,SF-295,> 100 µM (inactive)
same,GI50,786-0,> 100 µM (inactive)
same,GI50,SNB-19,> 100 µM (inactive)
same,GI50,RPMI-8226,> 100 µM (inactive)
same,GI50,HCT-15,> 100 µM
same,GI50,OVCAR-3,> 100 µM (inactive)
same,GI50,SW-620,> 100 µM (inactive)
same,GI50,A549,> 100 µM (inactive)
same,GI50,T47D,> 100 µM (inactive)
same,GI50,HOP-92,> 100 µM (inactive)
same,GI50,Hs-578T,> 100 µM (inactive)

# From ChEMBL document CHEMBL1201862, “PubChem BioAssay data set” (2004)
